In the supplement of paper PMC9938120:

Key:
Assay in all cases: drug sensitivity score (DSS3, normalised partial AUC of % inhibition dose-response) (DSS (score)); higher = more sensitive (stronger inhibition of viability); extreme values may be limits of the assay
[1] = test system: FMOC27 (patient-derived low-grade serous ovarian cancer cells); conditions: 72 h; library: FO5A; assay format: 2D, 384-well, CellTiter-Glo
Outline: (§1)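 Patient-derived ovarian cancer cells (early passage, under 10) were dispensed onto 384-well flat clear-bottom plates pre-plated with compounds at five concentrations covering a 10,000-fold range. Plates were incubated 72 h at 37 °C, 5% CO2, and viability was read with CellTiter-Glo. Data were processed in Breeze. The drug sensitivity score (DSS3) is a partial area under the percent-inhibition dose-response curve, divided by the log of the upper asymptote; higher means more sensitive.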

[2] = test system: FMOC17 (patient-derived low-grade serous ovarian cancer cells); conditions: 72 h; library: FO5A; assay format: 2D, 384-well, CellTiter-Glo
Outline: as §1

[3] = test system: FMOC02_3 (patient-derived low-grade serous ovarian cancer cells); conditions: 72 h; library: FO5A; assay format: 2D, 384-well, CellTiter-Glo
Outline: as §1

[4] = test system: FMOC14 (patient-derived high-grade serous ovarian cancer cells); conditions: 72 h; library: FO5A; assay format: 2D, 384-well, CellTiter-Glo
Outline: as §1

[5] = test system: FMOC11 (patient-derived high-grade serous ovarian cancer cells); conditions: 72 h; library: FO5A; assay format: 2D, 384-well, CellTiter-Glo
Outline: as §1

[6] = test system: FMOC09 (patient-derived high-grade serous ovarian cancer cells); conditions: 72 h; library: FO5A; assay format: 2D, 384-well, CellTiter-Glo
Outline: as §1

[7] = test system: FMOC06 (patient-derived mucinous ovarian cancer cells); conditions: 72 h; library: FO5A; assay format: 2D, 384-well, CellTiter-Glo
Outline: as §1

[8] = test system: FMOC22 (patient-derived mucinous ovarian cancer cells); conditions: 72 h; library: FO5A; assay format: 2D, 384-well, CellTiter-Glo
Outline: as §1

[9] = test system: FMOC04 (patient-derived high-grade serous ovarian cancer cells); conditions: 72 h; library: FO5A; assay format: 2D, 384-well, CellTiter-Glo
Outline: as §1

[10] = test system: FMOC24 (patient-derived high-grade serous ovarian cancer cells); conditions: 72 h; library: FO5A; assay format: 2D, 384-well, CellTiter-Glo
Outline: as §1

[11] = test system: FMOC02_1 (patient-derived low-grade serous ovarian cancer cells); conditions: 72 h; library: FO5A; assay format: 2D, 384-well, CellTiter-Glo
Outline: as §1

[12] = test system: FMOC25_1 (patient-derived low-grade serous ovarian cancer cells); conditions: 72 h; library: FO4B; assay format: 2D, 384-well, CellTiter-Glo
Outline: as §1

[13] = test system: FMOC02_2 (patient-derived low-grade serous ovarian cancer cells); conditions: 72 h; library: FO5A; assay format: 2D, 384-well, CellTiter-Glo
Outline: as §1

[14] = test system: FMOC03 (patient-derived mucinous ovarian cancer cells); conditions: 72 h; library: FO5A; assay format: 2D, 384-well, CellTiter-Glo
Outline: as §1

[15] = test system: FMOC25_2 (patient-derived low-grade serous ovarian cancer cells); conditions: 72 h; library: FO5A; assay format: 2D, 384-well, CellTiter-Glo
Outline: as §1

[16] = test system: FMOC28 (patient-derived low-grade serous ovarian cancer cells); conditions: 72 h; library: FO5A; assay format: 2D, 384-well, CellTiter-Glo
Outline: as §1

Row | Compound | drug sensitivity score [1] | drug sensitivity score [2] | drug sensitivity score [3] | drug sensitivity score [4] | drug sensitivity score [5] | drug sensitivity score [6] | drug sensitivity score [7] | drug sensitivity score [8] | drug sensitivity score [9] | drug sensitivity score [10] | drug sensitivity score [11] | drug sensitivity score [12] | drug sensitivity score [13] | drug sensitivity score [14] | drug sensitivity score [15] | drug sensitivity score [16]
1 | COc1ccc(Cn2ccc3ccc(C(=O)NO)cc32)cc1 | 0.2 | 1.4 | 1.8 | 1.1 | 0.6 | 1.1 | 0.2 | 0.4 | 0 | 0.4 | 1 | 0.8 | 3.4 | 1.1 | 2.5 | 4.9
2 | C[C@H]1Oc2cc(cnc2N)-c2c(nn(C)c2C#N)CN(C)C(=O)c2ccc(F)cc21 | 0 | 0 | 3.1 | 0 | 0 | 1.6 | 3.4 | 0 | 0 | 1.6 | 0.8 | 0 | 3.2 | 0 | 1.6 | 0
3 | Cc1ccc(C(=O)N(CCCN)[C@@H](c2oc3cc(Cl)ccc3c(=O)c2Cc2ccccc2)C(C)C)cc1 | 0 | 1.3 | 2.5 | 0 | 1.9 | 2.4 | 1.1 | 1.3 | 2.4 | 0 | 3.3 | 1.9 | 2.4 | 1.8 | 5.6 | 5
4 | Cc1cccc(CC(=O)N2CCc3c2ccc(-c2cn(C)c4ncnc(N)c24)c3F)n1 | 0 | 0 | 0 | 0 | 0 | 0 | 0 | 0.2 | 0 | 0 | 0 | 0.2 | 0 | 0 | 1.6 | 0
5 | Cc1ncc(Cl)cc1NCc1ccc(C(=O)N[C@@H](CC2CCCC2)C(=O)NC2CC2)s1 | 1.5 | 0 | 7.1 | 0 | 0 | 0 | 0.2 | 0.1 | 0 | 2.05 | 0 | 0 | 0 | 0 | 0 | 0
6 | N#Cc1ccc(COC[C@H]2O[C@@H](n3c(NCc4ccc(Cl)c(Cl)c4)nc4c(N)ncnc43)[C@H](O)[C@@H]2O)cc1 | 1.6 | 5.6 | 6.6 | 2.5 | 3.2 | 2 | 5.5 | 4.2 | 0.95 | 2.1 | 7.6 | 6.6 | 2.6 | 6 | 0 | 0
7 | NC[C@@](O)(c1ccc(Cl)cc1)c1ccc(-c2cn[nH]c2)cc1 | 0 | 0 | 0 | 0 | 2.8 | 2.6 | 1.5 | 1.1 | 0 | 4.55 | 4.1 | 2.8 | 0.4 | 0.3 | 0.4 | 2.8
8 | O=C(NC[C@H](O)CN1CCc2ccccc2C1)c1cc(NC2COC2)ncn1 | 1.1 | 0 | 1.3 | 0 | 0 | 0.3 | 0 | 1.8 | 0 | 0.5 | 0 | 1 | 0 | 0 | 0.2 | 0
9 | O=C(O)c1ccc(CN2CCC(CN[C@@H]3C[C@H]3c3ccccc3)CC2)cc1 | 0 | 0 | 1.6 | 0 | 0 | 0 | 0 | 0 | 0.4 | 0.9 | 0.4 | 0 | 0 | 0 | 0 | 0
10 | Cn1cc(C[C@@H](N)C(=O)O)c2ccccc21 [1-methyl-D-tryptophan] | 0 | 0 | 0 | 0 | 0 | 0.2 | 0 | 0 | 0 | 0 | 0 | 0 | 0 | 0 | 0 | 0.5
11 | CC1CCC(n2c3cnccc3c3cnc(Nc4ccc5c(n4)CCN(C(=O)CO)C5)nc32)CC1 (centres undefined) [AMG-925] | 0.9 | 0 | 1.3 | 0 | 0 | 0 | 0 | 0.2 | 0 | 0 | 0 | 0.7 | 0 | 0 | 0.5 | 0
12 | COCC1(CO)C(=O)C2CCN1CC2 (centres undefined) [APR-246] | 0 | 0 | 0 | 0 | 0 | 0 | 0 | 0 | 0 | 0.05 | 0 | 0 | 0 | 0 | 0 | 0
13 | COc1cc(N2CCN(C)CC2)ccc1Nc1nccc(-c2cn(C)c3cnccc23)n1 [AZ191] | 1.6 | 1.7 | 2.9 | 0.4 | 1.4 | 2.2 | 1.9 | 0.7 | 0.2 | 6.15 | 4 | 0 | 3.8 | 0.5 | 1.5 | 2.3
14 | COc1cc(OC2CCN(C)CC2)ccc1Nc1ncc2c(n1)n(C1CCCC1)c(=O)n2C [AZ 3146] | 4.4 | 4.7 | 9 | 0.9 | 1.3 | 1.1 | 2.9 | 0.8 | 1.3 | 6.25 | 5.2 | 3.7 | 5.2 | 0.7 | 6 | 2.3
15 | N[C@@H]1CCCN(c2c(/C=C3\SC(=O)NC3=O)cccc2-c2ccccc2)C1 [AZD1208] | 0 | 0 | 5.9 | 0 | 0 | 3.2 | 4.7 | 0 | 0 | 0 | 1 | 0.5 | 0 | 0 | 2.4 | 0
16 | Cc1cc(Nc2nc(N[C@@H](C)c3ncc(F)cn3)ncc2Cl)[nH]n1 [AZD1480] | 0 | 0.1 | 1.6 | 0 | 0 | 0 | 0 | 0 | 0 | 0 | 0.8 | 0 | 0.8 | 0 | 0.3 | 0
17 | COc1cc(CCc2cc(NC(=O)c3ccc(N4CC(C)NC(C)C4)cc3)n[nH]2)cc(OC)c1 (centres undefined) [AZD4547] | 0 | 0 | 0 | 0 | 0 | 0 | 0 | 0 | 0 | 0 | 0 | 0 | 0 | 0 | 0 | 0
18 | CN(C)C(=O)c1ccc(S(=O)(=O)c2ccc(NC(=O)[C@@](C)(O)C(F)(F)F)c(Cl)c2)cc1 [AZD7545] | 0 | 0 | 0 | 0.4 | 0 | 0 | 0 | 0.8 | 0 | 0 | 0 | 0 | 0 | 0 | 0 | 2.4
19 | N#Cc1ccc2[nH]c(O)c(-c3ccc(CN4CCOCC4)cn3)c2c1 [AZD-1080] | 0 | 0.4 | 5.1 | 0 | 0 | 0 | 0 | 0 | 0.15 | 1.15 | 1.4 | 0 | 0 | 0 | 5.3 | 0
20 | Cc1cc([C@@H](C)Nc2ccccc2C(=O)O)c2nc(N3CCOCC3)cc(=O)n2c1 [AZD-6482] | 0 | 2.8 | 2.3 | 0.4 | 0.9 | 0.1 | 0 | 0 | 0 | 0.5 | 0 | 2.5 | 0.6 | 0.5 | 0.8 | 0
21 | C[C@@H](Nc1cc(F)cc(F)c1)c1cc(C(=O)N(C)C)cc2c(=O)cc(N3CCOCC3)oc12 [AZD-8186] | 5.3 | 4.9 | 3.3 | 0 | 1.8 | 2.4 | 3 | 0 | 0.75 | 0 | 1.5 | 1.5 | 2.6 | 1.6 | 2.1 | 1.6
22 | CCN1CCN(Cc2ccc(Nc3ncc(F)c(-c4cc(F)c5nc(C)n(C(C)C)c5c4)n3)nc2)CC1 [Abemaciclib] | 3.2 | 3.4 | 11.6 | 0.1 | 0.8 | 2.1 | 4 | 0 | 0.35 | 1.7 | 7 | 0.1 | 6.6 | 2.3 | 7.5 | 0
23 | C[C@]12CC[C@H](O)CC1=CC[C@@H]1[C@@H]2CC[C@]2(C)C(c3cccnc3)=CC[C@@H]12 [Abiraterone] | 0 | 0 | 0 | 2.3 | 0 | 0 | 0.1 | 0 | 0.05 | 4.9 | 0 | 0.3 | 1.3 | 0 | 0.6 | 0.6
24 | Cn1ncc(Cl)c1-c1cc(C(=O)N[C@H](CN)Cc2cccc(F)c2)sc1Cl [Afuresertib] | 5.4 | 3 | 4.4 | 3.2 | 0.2 | 1 | 2.9 | 0 | 1.65 | 1.3 | 4.7 | 2.9 | 6.6 | 0 | 4.3 | 3.8
